Data from ChEMBL document CHEMBL3046558, “Effects of inositol 1,2,6-triphosphate on human liver cancer SMMC-7721 cells” (2012).
Activity calls are given as the source filed them. No cut-off for these calls is given here.

What was measured:
[1] = test system: SMMC-7721; test: Cell cycle arrest in Homo sapiens (human) SMMC7721 cells assessed as accumulation at S phase at 100 ug/ml after 3 days using PI staining by flow cytometry (Rvb =49.5 %); format: functional
[2] = test system: SMMC-7721; test: Inhibition of AFP expression in cytoplasm of Homo sapiens (human) SMMC7721 cells […] after 48 hr by immunohistochemistry analysis; format: functional, cell-based
[3] = test system: SMMC-7721; test: Antiproliferative activity against Homo sapiens (human) SMMC7721 cells at 50 ug/ml after 72 hr by MTT assay; format: functional
[4] = test system: SMMC-7721; test: Antiproliferative activity against Homo sapiens (human) SMMC7721 cells at 50 to 700 ug/ml by MTT assay; format: functional, cell-based; conditions: TDE = time-dependent effect
[5] = test system: SMMC-7721; test: Antiproliferative activity against Homo sapiens (human) SMMC7721 cells after 1 to 3 days by MTT assay; format: functional, cell-based
[6] = test system: SMMC-7721; test: Antiproliferative activity against Homo sapiens (human) SMMC7721 cells at 300 ug/ml after 72 hr by MTT assay; format: functional
[7] = test system: SMMC-7721; test: Cell cycle arrest in Homo sapiens (human) SMMC7721 cells assessed as accumulation at G0/G1 phase at 500 ug/ml after 3 days using PI staining by flow cytometry (Rvb =39 %); format: functional
[8] = test system: SMMC-7721; test: Inhibition of AFP expression in nucleolus of Homo sapiens (human) SMMC7721 cells […] after 48 hr by immunohistochemistry analysis; format: functional, cell-based
[9] = test system: SMMC-7721; test: Cell cycle arrest in Homo sapiens (human) SMMC7721 cells assessed as accumulation at G0/G1 phase at 300 ug/ml after 3 days using PI staining by flow cytometry (Rvb =39 %); format: functional
[10] = test system: SMMC-7721; test: Cell cycle arrest in Homo sapiens (human) SMMC7721 cells assessed as accumulation at G2/M phase at 300 ug/ml after 3 days using PI staining by flow cytometry (Rvb =11.5 %); format: functional
[11] = test system: SMMC-7721; test: Cell cycle arrest in Homo sapiens (human) SMMC7721 cells assessed as accumulation at S phase at 500 ug/ml after 3 days using PI staining by flow cytometry (Rvb =49.5 %); format: functional
[12] = test system: SMMC-7721; test: Cell cycle arrest in Homo sapiens (human) SMMC7721 cells assessed as accumulation at G0/G1 phase at 100 ug/ml after 3 days using PI staining by flow cytometry (Rvb =39 %); format: functional
[13] = test system: SMMC-7721; test: Cell cycle arrest in Homo sapiens (human) SMMC7721 cells assessed as accumulation at S phase at 300 ug/ml after 3 days using PI staining by flow cytometry (Rvb =49.5 %); format: functional
[14] = test system: SMMC-7721; test: Cell cycle arrest in Homo sapiens (human) SMMC7721 cells assessed as accumulation at G2/M phase at 500 ug/ml after 3 days using PI staining by flow cytometry (Rvb =11.5 %); format: functional
[15] = test system: SMMC-7721; test: Effect on morphology of Homo sapiens (human) SMMC7721 cells assessed as cell detachment from matrix at 300 ug/ml after 48 hr using HE staining by optical microscopy; format: functional, cell-based
[16] = test system: SMMC-7721; test: Antiproliferative activity against Homo sapiens (human) SMMC7721 cells at 700 ug/ml after 72 hr by MTT assay; format: functional
[17] = test system: SMMC-7721; test: Effect on morphology of Homo sapiens (human) SMMC7721 cells assessed as disruption of cell structure at 300 ug/ml after 48 hr using HE staining by optical microscopy; format: functional, cell-based
[18] = test system: SMMC-7721; test: Cell cycle arrest in Homo sapiens (human) SMMC7721 cells assessed as accumulation at G2/M phase at 100 ug/ml after 3 days using PI staining by flow cytometry (Rvb =11.5 %); format: functional
[19] = test system: SMMC-7721; test: Inhibition of PCNA expression in nucleolus of Homo sapiens (human) SMMC7721 cells […] after 48 hr by immunohistochemistry analysis; format: functional, cell-based
[20] = test system: SMMC-7721; test: Antiproliferative activity against Homo sapiens (human) SMMC7721 cells at 100 ug/ml after 72 hr by MTT assay; format: functional
[21] = test system: SMMC-7721; test: Antiproliferative activity against Homo sapiens (human) SMMC7721 cells at 500 ug/ml after 72 hr by MTT assay; format: functional

SMILES: O=P(O)(O)O[C@@H]1[C@H](OP(=O)(O)O)[C@H](O)[C@@H](O)[C@H](O)[C@H]1OP(=O)(O)O [ATRINOSITOL]
- Activity [1]: 39%
- inhibition [2]: Dose-dependent effect
- Activity [3]: 34.87%
- Activity [4]: tde
- Activity [5]: Dose-dependent effect
- Activity [6]: 59.52%
- Activity [7]: 68.1%
- inhibition [8]: Dose-dependent effect
- Activity [9]: 58.9%
- Activity [10]: 10.6%
- Activity [11]: 12.3%
- Activity [12]: 39.4%
- Activity [13]: 30.5%
- Activity [14]: 19.9%
- Activity [15]: Active
- Activity [16]: 79.08%
- Activity [17]: Active
- Activity [18]: 21.6%
- inhibition [19]: Dose-dependent effect
- Activity [20]: 50.85%
- Activity [21]: 67.86%
